According to patent US5328902A, “7-(substituted)-9-[(substituted glycyl)amido]-6-demethyl-6-deoxytetracyclines” (American Cyanamid Co., priority 1992, dated 1994):
Values after ≈ are worked out from the molar mass of the structure shown.

How the values were obtained:
[1] = tested on: Ps. acruginosa ATCC 27853; assay: MIC, agar dilution; type: cell-based; conditions: Ps. acruginosa ATCC 27853
[2] = tested on: E. coli UBMS 89-2 Tet sens.; assay: MIC, agar dilution; type: cell-based; conditions: E. coli UBMS 89-2 Tet sens.
[3] = tested on: S. aureus UBMS 90-1 Tet M; assay: microbe, parasite or virus in culture; type: cell-based; conditions: S. aureus UBMS 90-1 Tet M
S. aureus SMITH (MP) = assay: MIC, agar dilution; type: cell-based; conditions: S. aureus SMITH (MP)
E. coli BAJ9003 IMP MUT = assay: microbe, parasite or virus in culture; type: cell-based; conditions: E. coli BAJ9003 IMP MUT
E. coli UBMS 90-5 = assay: MIC, agar dilution; type: cell-based
E. coli UBMS 89-1 Tet M = assay: microbe, parasite or virus in culture; type: cell-based; conditions: E. coli UBMS 89-1 Tet M
S. aureus UBMS 90-3 = assay: MIC, agar dilution; type: cell-based; conditions: S. aureus UBMS 90-3
[4] = tested on: E. coli MC 4100 Tet sens.; assay: MIC, agar dilution; type: cell-based
E. coli J2175 = assay: MIC, agar dilution; type: cell-based; conditions: E. coli J2175
S. mariescens FPOR 8733 = assay: MIC, agar dilution; type: cell-based
[5] = tested on: E. coli MC 4100 TNIOC Tet B; assay: microbe, parasite or virus in culture; type: cell-based; conditions: E. coli MC 4100 TNIOC Tet B
Enterococcus 12201 = assay: MIC, agar dilution; type: cell-based; conditions: Enterococcus 12201
[6] = tested on: X. maltophilia NEMC 87210; assay: MIC, agar dilution; type: cell-based
E. coli J3272 Tet C = assay: microbe, parasite or virus in culture; type: cell-based; conditions: E. coli J3272 Tet C
S. aureus ROSE (MP) = assay: MIC, agar dilution; type: cell-based; conditions: S. aureus ROSE (MP)
[7] = tested on: S. aureus UBMS 88-7 Tet K; assay: microbe, parasite or virus in culture; type: cell-based; conditions: S. aureus UBMS 88-7 Tet K
E. coli UBMS 90-4 Tet M = assay: microbe, parasite or virus in culture; type: cell-based; conditions: E. coli UBMS 90-4 Tet M
S. aureus IVES 1 983 = assay: MIC, agar dilution; type: cell-based; conditions: S. aureus IVES 1 983
S. aureus UBMS 88-4 = assay: MIC, agar dilution; type: cell-based; conditions: S. aureus UBMS 88-4
E. faecalis ATCC 29212 = assay: MIC, agar dilution; type: cell-based; conditions: E. faecalis ATCC 29212
E. coli #311 (MP) = assay: MIC, agar dilution; type: cell-based; conditions: E. coli #311 (MP)
E. coli J3272 Tet D = assay: microbe, parasite or virus in culture; type: cell-based; conditions: E. coli J3272 Tet D
S. aureus IVES 2943 = assay: MIC, agar dilution; type: cell-based; conditions: S. aureus IVES 2943
E. coli PRP1 Tet A = assay: microbe, parasite or virus in culture; type: cell-based; conditions: E. coli PRP1 Tet A
E. coli UBMS 88-1 Tet B = assay: microbe, parasite or virus in culture; type: cell-based; conditions: E. coli UBMS 88-1 Tet B; 18 hours at 35° C.
[8] = tested on: S. aureus UBMS 90-2 Tet M; assay: microbe, parasite or virus in culture; type: cell-based; conditions: S. aureus UBMS 90-2 Tet M
[9] = tested on: S. hemolyticus AVHAH 88-3; assay: MIC, agar dilution; type: cell-based; conditions: S. hemolyticus AVHAH 88-3
S. aureus NEMC 8769 = assay: MIC, agar dilution; type: cell-based; conditions: S. aureus NEMC 8769
[10] = tested on: S. aureus UBMS 88-5 Tet M; assay: microbe, parasite or virus in culture; type: cell-based; conditions: S. aureus UBMS 88-5 Tet M
E. coli ATCC 25922 = assay: MIC, agar dilution; type: cell-based; conditions: E. coli ATCC 25922
S. aureus ATCC 29213 = assay: MIC, agar dilution; type: cell-based; conditions: S. aureus ATCC 29213
[11] = tested on: Wild Type S30 (wild type ribosomes, E. coli strain MRE600, tetracycline sensitive); assay: E. coli in vitro protein translation system, wild type S30; conditions: for inhibition of protein synthesis occuring on wild type ribosomes: coupled transcription and translation system
the ribosome = assay: Reversibility of binding: bacterial growth resumes after washing; type: cell-based; conditions: bacterial growth resumes when the compound is removed from the cultures by washing
From the text: Therefore, the ability of these compounds to inhibit bacterial growth appears to be a direct consequence of its ability to inhibit protein synthesis at the ribosome level.

E. coli J3272 Tet sens. = assay: MIC, agar dilution; type: cell-based

Compound	MIC [1] [µg/mL]	MIC [2] [µg/mL]	MIC [3] [µg/mL]	MIC (S. aureus SMITH (MP)) [µg/mL]	MIC (E. coli UBMS 90-5) [µg/mL]	MIC (E. coli UBMS 89-1 Tet M) [µg/mL]	MIC (S. aureus UBMS 90-3) [µg/mL]	MIC (E. coli J2175) [µg/mL]	MIC (S. mariescens FPOR 8733) [µg/mL]	MIC [5] [µg/mL]	MIC (Enterococcus 12201) [µg/mL]	MIC (E. coli J3272 Tet C) [µg/mL]	MIC (S. aureus ROSE (MP)) [µg/mL]	MIC [7] [µg/mL]	MIC (E. coli UBMS 90-4 Tet M) [µg/mL]	MIC (S. aureus IVES 1 983) [µg/mL]	MIC (S. aureus UBMS 88-4) [µg/mL]	MIC (E. coli #311 (MP)) [µg/mL]	MIC (E. coli J3272 Tet D) [µg/mL]	MIC (S. aureus IVES 2943) [µg/mL]	other results
CN(C)c1cc(NC(=O)CNOCc2ccccc2)c(O)c2c1C[C@H]1C[C@H]3[C@H](N(C)C)C(O)=C(C(N)=O)C(=O)[C@@]3(O)C(O)=C1C2=O [X, [4S-(4-alpha,12aalpha)]-4,7-Bis(dimethylamino)-1,4,4a,5,5a,6,11,12a-octahydro-3,10, 12,12a-tetrahydroxy-1,11-dioxo-9-[[[(phenylmethoxy)amino]acetyl]amino]-2-naphthacenecarboxamide]	> 32	> 32	2 (≈ 3.15 µM)	0.5 (≈ 0.787 µM)	> 32	16 (≈ 25.2 µM)	1 (≈ 1.57 µM)	> 32	> 32	> 32	4 (≈ 6.29 µM)	> 32	16 (≈ 25.2 µM)	4 (≈ 6.29 µM)	> 32	8 (≈ 12.6 µM)	1 (≈ 1.57 µM)	16 (≈ 25.2 µM)	16 (≈ 25.2 µM)	8 (≈ 12.6 µM)	MIC (E. coli BAJ9003 IMP MUT): 1 µg/mL (≈ 1.57 µM); MIC [4]: 4 µg/mL (≈ 6.29 µM); MIC [6]: 16 µg/mL (≈ 25.2 µM); MIC (E. faecalis ATCC 29212): 1 µg/mL (≈ 1.57 µM); MIC (E. coli PRP1 Tet A): > 32 µg/mL; MIC (E. coli UBMS 88-1 Tet B): > 32 µg/mL; MIC [8]: 2 µg/mL (≈ 3.15 µM); MIC [9]: 4 µg/mL (≈ 6.29 µM); MIC (S. aureus NEMC 8769): 1 µg/mL (≈ 1.57 µM); MIC [10]: 2 µg/mL (≈ 3.15 µM); MIC (E. coli ATCC 25922): 16 µg/mL (≈ 25.2 µM); MIC (S. aureus ATCC 29213): 1 µg/mL (≈ 1.57 µM)
[4S-(4alpha,12aalpha)]-4,7-Bis(dimethylamino)-1,4,4a,5,5a,6,11,12a-octahydro-3,10, 12,12a-tetrahydroxy-9-[[[(3-methoxypropyl)amino]acetyl]amino]-1,11-dioxo-2-naphthacenecarboxamide dihydrochloride	32	1	2	0.5	1	2	0.5	1	16	2	0.5	1	16	8	1	16	1	1	0.5	16	MIC (E. coli BAJ9003 IMP MUT): 0.12 µg/mL; % Inhibition Wild Type S30 ([11]; Conc. 0.06 mg/ml): 88%; inhibition of protein synthesis occuring on wild type ribosomes [11]: effectively inhibit protein synthesis; MIC (E. faecalis ATCC 29212): 0.25 µg/mL; MIC (E. coli PRP1 Tet A): 4 µg/mL; MIC [8]: 0.5 µg/mL; reversibility of binding to the ribosome (the ribosome): bind reversibly; MIC [9]: 2 µg/mL; MIC (S. aureus NEMC 8769): 0.25 µg/mL; MIC [10]: 0.5 µg/mL; MIC (E. coli ATCC 25922): 1 µg/mL; MIC (S. aureus ATCC 29213): 1 µg/mL; MIC (E. coli J3272 Tet sens.): 1 µg/mL
[4S-(4alpha,12aalpha)]-4,7-Bis(dimethylamino-1,4,4a,5,5a,6,11,12a-octahydro-3,10, 12,12a-tetrahydroxy-9-[[[(2-(methoxyethyl)amino]acetyl]amino]-1,11-dioxo-2-naphthacenecarboxamide dihydrochloride	> 32	2	2	0.5	2	2	0.5	2	> 32	2	0.5	4	32	16	2	32	0.5	2	1	32	% Inhibition Wild Type S30 ([11]; Conc. 0.06 mg/ml): 92%; % Inhibition Wild Type S30 ([11]; Conc. 1.0 mg/ml): 98%; inhibition of protein synthesis occuring on wild type ribosomes [11]: effectively inhibit protein synthesis; MIC (E. coli PRP1 Tet A): 8 µg/mL; MIC (E. coli UBMS 88-1 Tet B): 2 µg/mL; MIC [8]: 0.5 µg/mL; reversibility of binding to the ribosome (the ribosome): bind reversibly; MIC [9]: 2 µg/mL; MIC (S. aureus NEMC 8769): 0.5 µg/mL; MIC [10]: 1 µg/mL; MIC (E. coli ATCC 25922): 2 µg/mL; MIC (S. aureus ATCC 29213): 1 µg/mL; MIC (E. coli J3272 Tet sens.): 2 µg/mL
[4S-(4alpha,12aalpha)]-9-[[[(2,2-Diethoxyethyl)amino]acetyl]amino]-4,7-bis(dimethylamino)-1,4,4a,5,5a,6,11,12a-octahydro-3,10, 12,12a-tetrahydroxy-1,11-dioxo-2-naphthacenecarboxamide dihydrochloride [Compound C]	> 32	8	1	0.5	8	4	0.5	8	> 32	8	1	16	16	8	4	16	1	8	4	8	MIC (E. coli BAJ9003 IMP MUT): 0.5 µg/mL; % Inhibition Wild Type S30 ([11]; Conc. 0.06 mg/ml): 88%; % Inhibition Wild Type S30 ([11]; Conc. 1.0 mg/ml): 98%; inhibition of protein synthesis occuring on wild type ribosomes [11]: effectively inhibit protein synthesis; MIC (E. faecalis ATCC 29212): 0.5 µg/mL; MIC (E. coli PRP1 Tet A): > 32 µg/mL; MIC (E. coli UBMS 88-1 Tet B): 16 µg/mL; MIC [8]: 1 µg/mL; reversibility of binding to the ribosome (the ribosome): bind reversibly; MIC [9]: 2 µg/mL; MIC (S. aureus NEMC 8769): 0.25 µg/mL; MIC [10]: 1 µg/mL; MIC (E. coli ATCC 25922): 8 µg/mL; MIC (S. aureus ATCC 29213): 1 µg/mL; MIC (E. coli J3272 Tet sens.): 8 µg/mL
